Source: US20250345292A1, “COMBINATION OF ALBUTEROL AND BUDESONIDE FOR THE TREATMENT OF ASTHMA” (priority 2022, published 2025)

Experiments:
[1] = tested on: patients with mild-to-moderate asthma; assay: Phase 3 clinical trial, albuterol-budesonide combination vs. mono-components, four times daily for 12 weeks; type: in vivo, human; conditions: for Change from baseline in FEV1 AUC0-6 over 12 weeks, LSM / Change from baseline in trough FEV1 over 12 weeks, LSM: four times daily
Protocol: A Phase 3 clinical study evaluated contributions of the mono-components albuterol and budesonide to albuterol/budesonide combination efficacy in patients with mild-to-moderate asthma ≥4 years. Patients≥12 years were randomized 1:1:1:1:1 to four-times-daily albuterol/budesonide 180/160 or 180/80 μg, albuterol 180 μg, budesonide 160 μg or placebo for 12 weeks; patients 4-11 years were not included in this analysis set.
In the study, 1001 patients with mild-to-moderate asthma were randomized 1:1:1:1:1 to ABD 180/160 μg or 180/80 μg, albuterol (A) 180 μg, budesonide (B) 160 μg, or placebo, all four times daily (QID), for 12 weeks. […] Secondary endpoints included time to onset, as measured by 15% improvement in FEV1 within 30 minutes on Day 1, and duration of effect, and Asthma Control Questionnaire-7 (ACQ-7) responder (≥0.5-point reduction from baseline) analysis at Week 12.

[2] = tested on: patients with uncontrolled moderate-to-severe asthma; assay: Phase 3 clinical trial, albuterol-budesonide FDC vs. albuterol alone: safety endpoints (adverse events)
Protocol: (§1) Safety endpoints (adverse events [AEs] and serious adverse events [SAEs]) were assessed from date of informed consent/assent through the safety follow-up.
(§2) All randomized patients who received any amount of study drug, classified by the study medication they were randomized to, were included in the efficacy analyses comparing albuterol-budesonide 180/80-μg with albuterol. […] All patients receiving any amount of randomized study medication, and classified by the study medication they actually received, were included for all safety analyses.

[3] = tested on: patients with uncontrolled moderate-to-severe asthma; conditions: human, in vivo, 180 μg
Protocol: as §1, §2

[4] = tested on: patients with uncontrolled moderate-to-severe asthma; assay: Phase 3 clinical trial, as-needed albuterol-budesonide fixed dose combination vs. albuterol alone: efficacy and study medication use; type: in vivo, human; conditions: for % of patients with a severe exacerbation / number of patients with a severe exacerbation: as-needed use
[5] = vs placebo, full analysis set ≥12 years
[6] = AE in ≥2% of patients in any group
[7] = treatment-related, investigator-assessed AE
[8] = comparison 180/80-μg versus albuterol, all patients
[9] = comparison 180/160-μg versus albuterol, excludes children
[10] = comparison albuterol-budesonide 180/80-μg versus albuterol, all patients
[11] = comparison albuterol-budesonide 180/160-μg versus albuterol, excludes children (albuterol n=1,014)

Which “Change from baseline in FEV1 AUC0-6 over 12 weeks, LSM” value ([1]; full analysis set ≥12 years) does the source give for `CCCC1O[C@@H]2C[C@H]3[C@@H]4CCC5=CC(=O)C=C[C@]5(C)[C@H]4[C@@H](O)C[C@]3(C)[C@]2(C(=O)CO)O1` (mixture of isomers) [budesonide 160 μg, (RS)-11β,21-dihydroxy-16α,17α-(butylidenebis(oxy)) pregna-1,4-diene-3,20-dione] here?
Its value is 178.0 mL.

And the “Change from baseline in trough FEV1 over 12 weeks, LSM” value ([1]; full analysis set ≥12 years)?
The value was 108.9 vs mL.

What about the “Change from baseline in trough FEV1 over 12 weeks, difference in LSM” value [1, 5] of the same compound?
Its value is 73.3 mL.

How did the “Asthma, %” value [2, 6] turn out when `CC(C)(C)NCC(O)c1ccc(O)c(CO)c1` (stereo not shown) [albuterol 180-μg, 4-(2-(tert-butylamino)-1-hydroxyethyl)-2-(hydroxymethyl) phenol] was run?
The value was 3.3%.

What about the “Back pain, %” value [2, 6] of the same compound?
The value was 1.9%.

And the “Bronchitis, %” value [2, 6]?
The value was 2.6%.

And the “COVID-19, %” value [2, 6]?
Its value is 4.4%.

What about the “Headache, %” value [2, 6] of the same compound?
Its value is 4.7%.

And the “Hypertension, %” value [2, 6]?
Its value is 2.5%.

What about the “Influenza, %” value [2, 6] of the same compound?
The value was 1.3%.

And the “Nasopharyngitis, %” value [2, 6]?
Its value is 5.1%.

What about the “Sinusitis, %” value [2, 6] of the same compound?
The value was 2.3%.

And the “Upper respiratory tract infection, %” value [2, 6]?
The value was 2.5%.

What about the “Patients with any AE, %” value ([2]; Table 1) of the same compound?
Its value is 46.4%.

What about the “frequency of AEs leading to discontinuation of treatment” value ([2]; human, in vivo) of the same compound?
Its value is 0.9%.

And the “frequency of inhaled glucocorticoid-associated adverse events” value ([2]; human, in vivo)?
Its value is 1.3%.

What about the “deaths (number)” value ([2]; no deaths considered treatment-related) of the same compound?
The value was 1.

And the “frequency of any AE” value ([2]; randomized treatment groups)?
Its value is 46.4%.

And the dysphonia [2, 7]?
Its dysphonia is 0.4%.

And the oral candidiasis [2, 7]?
Its oral candidiasis is 0.5%.

What about the oropharyngeal candidiasis [2, 7] of the same compound?
Its oropharyngeal candidiasis is 0.1%.

What about the “frequency of SAEs, including deaths” value [3] of the same compound?
The value was 4.5%.

And the “responders (onset of effect)” value ([1]; Day 1, 15% improvement in FEV1 within 30 minutes)?
Its value is 42.9%.

And the “Median time to onset” value ([1]; Day 1, 15% improvement in FEV1 within 30 minutes, responders)?
The value was 9.5 min.

What about the “Median duration of effect” value ([1]; Day 1, responders) of the same compound?
The value was 168.2 min.

What about the “percentages of ACQ-7 responders” value ([1]; Week 12, ≥0.5-point reduction from baseline) of the same compound?
Its value is 47.2%.

What about the “bronchodilation with repeated use over 1-4 weeks” value ([1]; compared with placebo) of the same compound?
The value was “no difference”.

And the “Change from baseline in FEV1 AUC0-6 over 12 weeks, LSM” value ([1]; full analysis set ≥12 years)?
Its value is 157.2 vs mL.

And the “Change from baseline in trough FEV1 over 12 weeks, LSM” value ([1]; full analysis set ≥12 years)?
The value was 2.7 mL.

What about the “Change from baseline in FEV1 AUC0-6 over 12 weeks, difference in LSM” value [1, 5] of the same compound?
The value was 60.5 mL.

What about the “Annualized severe exacerbation rate” value [4, 8] of the same compound?
The value was 0.61.

What about the “Annualized total systemic glucocorticoid exposure (prednisone equivalents), median” value [4, 8] of the same compound?
Its value is 0.0 mg/year.

What about the “Annualized severe exacerbation rate” value [4, 9] of the same compound?
Its value is 0.59.

And the “Annualized total systemic glucocorticoid exposure (prednisone equivalents), median” value [4, 9]?
Its value is 0.0 mg/year.

What about the “% of patients with a severe exacerbation” value [4, 10] of the same compound?
The value was 26.1%.

What about the “number of patients with a severe exacerbation” value [4, 10] of the same compound?
Its value is 276.

And the “% of patients with a severe exacerbation” value [4, 11]?
Its value is 26.2%.

What about the “number of patients with a severe exacerbation” value [4, 11] of the same compound?
The value was 266.

And the “severe exacerbations requiring ED or urgent care visits (number)” value ([4]; per treatment arm)?
The value was 66.

What about the “severe exacerbations requiring hospitalization (number)” value ([4]; per treatment arm) of the same compound?
The value was 17.
